The results in this text go back to patent US6288056A, “Intermittent claudication therapeutic drugs comprising pyrroloazepines” (Suntory Limited, priority 1999, dated 2001).

SMILES strings stand for the structures. Read-outs that look alike come from different tables or passages of the source.

The test system of one assay is Femoral artery. The assay can be described thus: Relaxation of vasoconstriction induced by supernatant of aggregated platelets, femoral artery. The settings on record: Oryctolagus cuniculus, aggregated platelet supernatant 1/100-fold dilution, read-out: EC50 (50% relaxation). Also on record: species or system male Japanese white rabbit. The method, then: (§1) After a male Japanese white rabbit was anesthetized by intramuscular administration of ketamine (product of sankyo Company, Limited) at 50 mg/kg, a polyethylene-made catheter ["PE240" (trade name), manufactured by Becton Dickinson Co., Ltd.] was inserted into a carotid artery, and the blood was collected with a tube containing a 1/10 volume of a 3.8% aqueous solution of sodium citrate [NACALAI TESQUE, Inc.]. The blood so collected was centrifuged at 90 g (900 rpm) for 15 minutes ["05PR-22" (trade name), manufactured by Hitachi Koki Co., Ltd.] and platelet-rich plasma (PRP) was collected from the upper layer.
(§2) After addition of an equiamount of buffer A (25 mM Tris-HCl, 130 mM NaCl, 1.5 mM EDTA, pH 7.4), to PRP, the mixture was centrifuged at 4° C. and 1,500 g (3,000 rpm) for 10 minutes. The thus-obtained platelet pellet was suspended again in buffer A, followed by centrifugation at 4° C. and 1,500 g (3,000 rpm) for 5 minutes. The resulting platelet pellet was suspended again in buffer B (25 mM Tris-HCl, 130 mM NaCl, 0.3 mM EDTA, pH 7.4), followed by centrifugation under the same conditions. […]
(§3) After the vascular strip preparations had been left over for about 1 hour and their resting tensions had been confirmed to become stable, the tonicities of the vascular strip preparations were measured using the isometric transducers. […]

The test system of the next assay is Mesenteric artery. The assay can be described thus: Relaxation of vasoconstriction induced by supernatant of aggregated platelets, mesenteric artery. Also on record: species or system male Japanese white rabbit. The following applies: Oryctolagus cuniculus, aggregated platelet supernatant 1/100-fold dilution, read-out: EC50 (50% relaxation). The method, then: as §1, §2, §3

A further assay concerns Coronary artery. In words: Relaxation of vasoconstriction induced by supernatant of aggregated platelets, coronary artery. On the set-up: species or system male Japanese white rabbit. The following applies: Oryctolagus cuniculus, aggregated platelet supernatant 1/100-fold dilution, read-out: EC50 (50% relaxation). The procedure: as §1, §2, §3
Another assay deals with Pulmonary artery. In words: Relaxation of vasoconstriction induced by supernatant of aggregated platelets, pulmonary artery. The following applies: Oryctolagus cuniculus, aggregated platelet supernatant 1/100-fold dilution, read-out: EC50 (50% relaxation). On the set-up: species or system male Japanese white rabbit. The method, then:
as §1, §2, §3

In assay [1] the test system is platelet aggregation (platelet-rich plasma). The assay can be described thus: Inhibitory Effect on Canine Platelet Aggregation (ex vivo after oral administration, collagen + serotonin). The settings on record: Canis lupus familiaris, 0.1 mg/kg oral, collagen + serotonin 1 μM, read-out: Aggregation inhibition rate. In kind it is in vivo, canine (male beagles). The procedure:
Four male beagles which ranged in age from 17 to 19 months were used after fasted overnight. A suspension of (-)-(S)-5-[3-[4-(4-fluorophenyl)piperazin-1-yl]propyl]-8-hydroxy-1-methyl- 1,4,5,6,7,8-hexahydropyrrolo[3,2-c]azepin-4-one (test compound a) in a 0.5% aqueous solution of carboxymethylcellulose sodium salt was orally administered at 0.1 mg/kg. Before the administration of the test compound and after elapsed times of 1, 2, 4 and 6 hours from the administration, blood samples were collected from the foreleg veins. The blood was sampled using syringes containing a 1/10 volume of a 3.8% aqueous solution of sodium citrate ["cytorate for ESR Measurement" (trade name), product of The Green Cross Corp.].
Each collected blood sample was centrifuged at room temperature and 190 g for 7 minutes, and the upper layer, platelet-rich plasma (PRP), was collected. The remaining blood was centrifuged at 1,500 g for 10 minutes, and the upper layer, platelet-poor plasma (PPP), was collected. Using collagen [final concentration: 0.03 to 5 μg/ml, "Collagenreagent Form" (trade name), product of Moriya Sangyo Co., Ltd.] and serotonin (final concentration: 1 μM, serotonin hydrochloride, product of Sigma Chemical Co.) as a platelet proaggrecant, the platelet aggregating ability was measured by the Born turbidimetry. Specifically, using PPP as a control, a solution of calcium chloride (product of NACALAI TESQUE, INC.) was added to PRP at 37° C. to give a final concentration of 1 mM. After 2 minutes, the proaggrecant was added. Variations in transmittance, which took place in the course of subsequent 10 minutes, were measured using a platelet aggregometer measuring instrument ["PAM-8C" (trade name), manufactured by MEBANCS, INC.], and its maximum value was recorded as a platelet aggregation rate (%). […] As an aggregation inhibition rate, the proportion of an aggregation rate after the administration of the test compound relative to an aggregation rate before the administration of the test compound was shown in percentage.

Assay [2] deals with gastrocnemius-plantaris-sole muscle (GPS muscle). The assay can be described thus: Test in Rat Intermittent Claudication Model (muscle contraction force after collagen infusion). The following applies: 20 minutes after collagen infusion. Format: in vivo, male Wistar rats. The method, then: Based on the methods proposed by Angersbach, D. et al. in Int. J. Microcirc. Clin. Exp., 7, 15-30 (1988) and by Loots, W. et al. in Am. J. Physiol. 265, H158-H164 (1993), an intermittent claudication model was designed as will be described next. Firstly, male Wistar rats which ranged in age from 9 to 10 weeks were ligated at right femoral arteries under anesthesia with pentobanbital [40 mg/kg, intraperitoneal administration, "Nembutal Injection" (trademark), product of Dainabot Co., Ltd.] and were fed for 1 week. After fasted overnight, a suspension of (-)-(S)-5-[3-[4-(4-fluorophenyl)piperazin-1-yl]propyl]-8-hydroxy-1-methyl- 1,4,5,6,7,8-hexahydropyrrolo[3,2-c]azepin-4-one (test compound a) in a 0.5% aqueous solution of carboxymethylcellulose sodium salt was orally administered at 1, 3 and 10 mg/kg, respectively.
After an elapsed time of 60 minutes since the administration, each rat was subjected to anesthetization with urethan ([…], intraperitoneal administration, product of Sigma Chemical Co.) and α-chloralose ([…], intraperitoneal administration, product of NACALAI TESQUE, INC.). To administer collagen into artery, a cannula ["SP-31" (trade name), manufactured by Natsume Seisakusho Co., Ltd.] was inserted through the left carotid artery such that its leading end was located on a proximal side of the branching point of the iliac artery. Thereafter, the rat was held in a prone position, and the skin of the right hind leg was flayed to expose the gastrocnemius-plantaris-sole muscle (GPS muscle). The Achilles tendon was bound and cut off, connected to an isometric tension meter ["CBE-1 10 kg" (trade name), manufactured by MINEBEA Co., Ltd.], and then held in place with a resting tension of about 100 g. […] Contraction force produced upon electric stimulation was recorded [amplifier: "AP-620G" (trade name), manufactured by Nihon Kohden Corporation, recorder: "WT-645G" (trade name), manufactured by Nihon Kohden Corporation]. […]

The subject of assay [3] is pulmonary thromboembolic death. In words: Inhibitory Action in Mouse Pulmonary Thromboembolic Death. In kind it is in vivo, male ddY mice. The following applies: 3 mg/kg oral; within 10 minutes after injection of collagen 1 mg/kg and serotonin hydrochloride 5 mg/kg. The procedure: Male ddY mice which ranged in age from 4 to 5 weeks were used after fasted overnight. Suspensions of Compounds a-c, which will be specified subsequently herein, in a 0.5% aqueous solution of carboxymethylcellulose sodium were orally administered at 3 mg/kg.
After 1 hour, collagen [1 mg/kg, "Collagenreagent Form" (trade name), product of Moriya Sangyo Co., Ltd.] and serotonin hydrochloride (5 mg/kg, product of Sigma Chemical Co.) were injected through the candal veins.
An investigation was made for mortality rates of mice within 10 minutes after the injection.

The next assay concerns Basilar artery. In words: Relaxation of vasoconstriction induced by supernatant of aggregated platelets, basilar artery. Also on record: species or system male Japanese white rabbit. The following applies: Oryctolagus cuniculus, aggregated platelet supernatant 1/100-fold dilution, read-out: EC50 (50% relaxation). The method, then: as §1, §2, §3
Another assay has as its system Renal artery. The assay can be described thus: Relaxation of vasoconstriction induced by supernatant of aggregated platelets, renal artery. Also on record: species or system male Japanese white rabbit. The following applies: Oryctolagus cuniculus, aggregated platelet supernatant 1/100-fold dilution, read-out: EC50 (50% relaxation). The procedure:
as §1, §2, §3

Usually EC50 stands for the concentration that produces a half-maximal response. As usually defined, the inhibition is the relative decrease from the control value, in per cent. `Cn1ccc2c1[C@@H](O)CCN(CCCN1CCN(c3ccc(F)cc3)CC1)C2=O` [Compound a, (-)-(S)-5-[3-[4-(4-fluorophenyl)piperazin-1-yl]propyl]-8-hydroxy-1-methyl-1,4,5,6,7,8-hexahydropyrrolo[3,2-c]azepin-4-one]: the EC50 was 328 ± 112 nM in the assay on Femoral artery; 32 ± 22 nM in the assay with Mesenteric artery; 254 ± 54 nM in the assay on Coronary artery; 14 ± 3 nM in the assay on Pulmonary artery; 138 ± 55 nM in the assay with Basilar artery; 246 ± 79 nM in the assay with Renal artery. The inhibition at 0.1 mg/kg in assay [1] (1 hr after administration) is 99.7 ± 0.3%; in [1] (2 hr after administration) it was 99.8 ± 0.2%; in [1] (4 hr after administration), 99.3 ± 0.7%; in assay [1] (6 hr after administration), 72.5 ± 16.1%. The Contraction force is given as 93 ± 17 g in [2] (1 mg/kg oral), 116 ± 15 g in assay [2] (3 mg/kg oral) and 122 ± 10 g in [2] (10 mg/kg oral). The Mortality rate in assay [3] was 10%.
Molecule `Cc1cn(C)c2c1C(=O)N(CCCN1CCN(c3ccc(F)cc3)CC1)CCC2O` (stereo not shown) [Compound c, 5-[3-[4-(4-fluorophenyl)piperazin-1-yl]propyl]-8-hydroxy-1,3-dimethyl-1,4,5,6,7,8-hexahydropyrrolo[3,2-c]azepin-4-one] returned a Mortality rate in [3] of 30%.
`Cn1ccc2c1C(O)CCN(CCCN1CCN(c3ccc(F)cc3)CC1)C2=O` (racemic) [Compound b, (±)-5-[3-[4-(4-fluorophenyl)piperazin-1-yl]propyl]-8-hydroxy-1-methyl-1,4,5,6,7,8-hexahydropyrrolo[3,2-c]azepin-4-one] yielded a Mortality rate in [3] of 25%.
